Biological target: High affinity choline transporter 1 (Homo sapiens) (UniProt Q9GZV3)
Experiment: PubChem AID 1794811
Conditions: HEK-293 JumpIN-SLC5A7, FLIPR membrane potential dye

Chain of High affinity choline transporter 1 (Homo sapiens) (Q9GZV3 whole entry, looked up): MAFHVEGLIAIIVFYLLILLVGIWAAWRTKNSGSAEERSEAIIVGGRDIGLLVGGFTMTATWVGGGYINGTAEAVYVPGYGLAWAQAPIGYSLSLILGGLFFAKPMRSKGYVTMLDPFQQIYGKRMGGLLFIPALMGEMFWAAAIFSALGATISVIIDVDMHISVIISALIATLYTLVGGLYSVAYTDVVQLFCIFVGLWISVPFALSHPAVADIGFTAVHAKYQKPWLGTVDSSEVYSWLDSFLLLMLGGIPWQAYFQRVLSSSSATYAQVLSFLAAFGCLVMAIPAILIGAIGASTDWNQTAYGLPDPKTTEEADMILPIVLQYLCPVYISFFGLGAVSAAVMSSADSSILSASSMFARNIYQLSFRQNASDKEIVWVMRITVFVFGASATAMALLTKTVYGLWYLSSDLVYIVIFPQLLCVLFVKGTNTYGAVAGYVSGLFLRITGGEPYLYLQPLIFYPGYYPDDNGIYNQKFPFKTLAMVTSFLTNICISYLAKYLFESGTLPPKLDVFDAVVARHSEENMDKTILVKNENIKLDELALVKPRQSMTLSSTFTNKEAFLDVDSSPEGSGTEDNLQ

## C[N+](C)(C)CCO
  EC50: 17 µM
